Patent publication US9125955B2, “99mTc imaging agents and methods of use” (GENERAL ELECTRIC COMPANY, priority 2012, dated 2015)

Assay: Ligand stability studies (stock solution at room temperature, LC-MS)
Assay type: physicochemical
Settings: stock solution ~300 μg in 4 mL DMSO/H2O [1:1 v/v] (water for other ligands), bench top, LC-MS every 24 h, 3 days
Experimental: Ligand stability studies: A stock solution (prepared by dissolving ˜300 μg of ligand in 4 mL of water; in the cases of Compound 2, 4 mL of DMSO/H2O[1:1 v/v] was used) was stored on bench top at room temperature without extra precautions.

decomposition of ligand stock solution by LC-MS: no decomposition was observed
SMILES: C/C(=N\O)C(C)(C)NCCN(CCNC(C)(C)/C(C)=N/O)S(=O)(=O)c1ccc(C)cc1 [Compound 2, N,N-bis(2-((E)-3-(hydroxyimino)-2-methylbutan-2-ylamino)ethyl)-4-methylbenzenesulfonamide]
